Measured values as given in patent US11547761B1, “Antibody adjuvant conjugates” (The Board of Trustees of the Leland Stanford Junior …, priority 2016, dated 2023).
Blank lines part the entries; values can stand above or below the compound they belong to.

Experiments:
[1] = target: T1, recombinant human CD64 protein (Homo sapiens, UniProt P12314); assay: ELISA binding to CD64; conditions: titration
T1 construct: purchased R&D Systems
Procedure: Maxysorp ELISA plates were coated overnight with 1.5 ug/ml recombinant human CD64 protein (R&D Systems). Plates were blocked with PBS containing 1% BSA, and incubated with a titration of Rituximab or Rituximab immunoconjugates (Rituximab BB-01). Bound antibodies were detected with Peroxidase conjugated AffiniPure F(ab′)2 Fragment Goat Anti-Human IgG (Jackson) using TMB color development and absorbance at 450 nm was measured after stopping the reaction.

[2] = system: recombinant human CD16a protein; assay: ELISA binding to CD16a; conditions: titration
Procedure: Maxysorp ELISA plates were coated overnight with 1.5 ug/ml recombinant human CD16a protein (R&D Systems 4325-FC-050). Plates were blocked with PBS containing 1% BSA, and incubated with a titration of antibodies or antibody immunoconjugates. Bound antibodies were detected with Peroxidase conjugated AffiniPure F(ab′)2 Fragment Goat Anti-Human IgG (Jackson 109-036-003). TMB (Fisher PI34028) was added to the wells and absorbance at 450 nm was measured after stopping the reaction with TMB stop solution (Fisher NC1291012).

[3] = system: human antigen presenting cells; assay: Stimulation of human antigen presenting cells with free adjuvants, flow cytometry; type: cell-based; conditions: peripheral blood APCs, 10-fold serial dilutions, 18 hours, 37° C.
Procedure: Peripheral blood antigen presenting cells (APCs) were stimulated with 10-fold serial dilutions of R848, Compound 2 or a control TLR agonist at 37° C. After 18 hours, cells were analyzed via flow cytometry. Data are presented as median fluorescence intensity of each indicated marker; n=3.
To determine if adjuvant functionalization impacted the capacity of Compound 2 or Compound 1 to elicit immune activation, human antigen presenting cells were stimulated with 10-fold serial dilutions of R848, Compound 2, Compound 1 or a control TLR agonist, CL307, for 18 hours prior to analysis via flow cytometry.

[4] = target: T2, human TLR8 (Homo sapiens, UniProt Q9NR97); assay: HEK293 TLR reporter (secreted embryonic alkaline phosphatase) assay; type: cell-based; conditions: 2-fold serial dilutions, 12 hours at 37° C.
T2 construct: expressed in transfected cells; host or cells: HEK293
T2 sequence (Q9NR97 27-1041): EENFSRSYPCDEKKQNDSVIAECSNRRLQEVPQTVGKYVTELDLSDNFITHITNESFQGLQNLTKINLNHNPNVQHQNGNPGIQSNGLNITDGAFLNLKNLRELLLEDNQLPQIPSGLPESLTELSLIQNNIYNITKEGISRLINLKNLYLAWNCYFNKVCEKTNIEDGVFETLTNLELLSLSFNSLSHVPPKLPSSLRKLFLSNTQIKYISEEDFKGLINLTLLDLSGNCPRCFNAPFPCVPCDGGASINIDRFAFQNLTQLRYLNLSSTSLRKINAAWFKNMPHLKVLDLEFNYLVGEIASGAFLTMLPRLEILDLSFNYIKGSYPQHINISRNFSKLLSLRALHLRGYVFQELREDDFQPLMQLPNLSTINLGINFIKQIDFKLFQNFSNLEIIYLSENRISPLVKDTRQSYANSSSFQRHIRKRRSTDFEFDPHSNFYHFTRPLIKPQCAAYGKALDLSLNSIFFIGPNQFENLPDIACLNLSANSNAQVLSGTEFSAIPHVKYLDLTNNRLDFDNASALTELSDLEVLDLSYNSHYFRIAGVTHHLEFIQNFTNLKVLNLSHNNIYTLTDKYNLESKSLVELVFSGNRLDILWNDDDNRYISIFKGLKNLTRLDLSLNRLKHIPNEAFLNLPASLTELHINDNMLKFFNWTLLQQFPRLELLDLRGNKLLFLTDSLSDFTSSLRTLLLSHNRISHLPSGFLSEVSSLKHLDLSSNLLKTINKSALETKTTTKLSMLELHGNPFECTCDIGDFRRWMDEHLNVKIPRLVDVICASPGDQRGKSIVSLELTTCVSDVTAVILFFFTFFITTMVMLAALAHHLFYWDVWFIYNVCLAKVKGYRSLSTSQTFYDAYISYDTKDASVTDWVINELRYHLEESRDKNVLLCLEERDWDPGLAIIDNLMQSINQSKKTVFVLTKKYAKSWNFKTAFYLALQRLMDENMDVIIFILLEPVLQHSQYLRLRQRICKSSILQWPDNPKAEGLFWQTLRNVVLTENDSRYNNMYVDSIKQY
Procedure: (§1) HEK293 cells were co-transfected with human TLR7 or TLR8 (top two panels) or murine TLR7 (bottom panel) and an inducible secreted embryonic alkaline phosphatase reporter gene under the control of the IFN-β minimal promoter fused to NF-κB and AP-1 binding sites. Cells were subsequently incubated with 2-fold serial dilutions of the indicated adjuvant for 12 hours at 37° C. Activity was measured by spectrophotometry (OD 650 nm) following addition of alkaline phosphatase substrate.
(§2) Next, the capacity of each functionalized TLR agonist to activate human TLR7 or TLR8 was directly assayed. HEK293 cells were co-transfected with human TLR7 or TLR8 or murine TLR7 and an inducible secreted embryonic alkaline phosphatase reporter gene under the control of the IFN-β minimal promoter fused to NF-κB and AP-1 binding sites. Cells were subsequently incubated with 2-fold serial dilutions of each the indicated adjuvants for 12 hours at 37 C in the presence of an alkaline phosphatase substrate. Activity was measured by spectrophotometry (OD 650 nm).

[5] = target: T3, murine TLR7 (Mus musculus, UniProt P58681); assay: as above; type: cell-based; conditions: 2-fold serial dilutions, 12 hours at 37° C.
T3 construct: expressed in transfected cells; host or cells: HEK293
T3 sequence (P58681 27-1050): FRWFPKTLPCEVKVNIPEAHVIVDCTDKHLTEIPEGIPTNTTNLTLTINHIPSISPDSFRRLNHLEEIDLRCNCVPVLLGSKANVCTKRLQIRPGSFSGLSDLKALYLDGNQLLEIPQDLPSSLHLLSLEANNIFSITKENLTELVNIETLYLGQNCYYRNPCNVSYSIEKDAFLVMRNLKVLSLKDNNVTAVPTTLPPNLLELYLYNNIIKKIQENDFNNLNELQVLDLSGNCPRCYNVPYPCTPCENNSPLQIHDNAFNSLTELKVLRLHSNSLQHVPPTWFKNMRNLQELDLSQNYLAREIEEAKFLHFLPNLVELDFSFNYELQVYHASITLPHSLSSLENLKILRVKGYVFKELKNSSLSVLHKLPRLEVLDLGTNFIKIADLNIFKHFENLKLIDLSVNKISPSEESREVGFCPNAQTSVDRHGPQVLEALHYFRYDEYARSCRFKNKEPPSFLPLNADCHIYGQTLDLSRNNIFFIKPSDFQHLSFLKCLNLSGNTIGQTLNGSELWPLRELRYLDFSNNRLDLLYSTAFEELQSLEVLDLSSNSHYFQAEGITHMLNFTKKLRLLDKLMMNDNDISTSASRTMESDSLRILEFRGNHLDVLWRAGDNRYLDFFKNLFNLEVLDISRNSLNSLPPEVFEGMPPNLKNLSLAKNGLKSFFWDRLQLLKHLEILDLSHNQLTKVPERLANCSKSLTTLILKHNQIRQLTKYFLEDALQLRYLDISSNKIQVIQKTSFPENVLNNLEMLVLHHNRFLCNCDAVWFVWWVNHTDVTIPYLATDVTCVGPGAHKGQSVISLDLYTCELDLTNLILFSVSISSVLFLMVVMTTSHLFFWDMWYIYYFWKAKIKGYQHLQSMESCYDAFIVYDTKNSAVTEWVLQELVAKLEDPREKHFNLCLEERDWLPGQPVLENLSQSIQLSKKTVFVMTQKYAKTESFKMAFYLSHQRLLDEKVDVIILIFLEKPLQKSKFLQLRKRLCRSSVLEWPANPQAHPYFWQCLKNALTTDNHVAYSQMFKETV
Procedure: as §1, §2

[6] = target: T4, human TLR7 (Homo sapiens, UniProt Q9NYK1); assay: as above; type: cell-based; conditions: 2-fold serial dilutions, 12 hours at 37° C.
T4 construct: expressed in transfected cells; host or cells: HEK293
T4 sequence (Q9NYK1 27-1049): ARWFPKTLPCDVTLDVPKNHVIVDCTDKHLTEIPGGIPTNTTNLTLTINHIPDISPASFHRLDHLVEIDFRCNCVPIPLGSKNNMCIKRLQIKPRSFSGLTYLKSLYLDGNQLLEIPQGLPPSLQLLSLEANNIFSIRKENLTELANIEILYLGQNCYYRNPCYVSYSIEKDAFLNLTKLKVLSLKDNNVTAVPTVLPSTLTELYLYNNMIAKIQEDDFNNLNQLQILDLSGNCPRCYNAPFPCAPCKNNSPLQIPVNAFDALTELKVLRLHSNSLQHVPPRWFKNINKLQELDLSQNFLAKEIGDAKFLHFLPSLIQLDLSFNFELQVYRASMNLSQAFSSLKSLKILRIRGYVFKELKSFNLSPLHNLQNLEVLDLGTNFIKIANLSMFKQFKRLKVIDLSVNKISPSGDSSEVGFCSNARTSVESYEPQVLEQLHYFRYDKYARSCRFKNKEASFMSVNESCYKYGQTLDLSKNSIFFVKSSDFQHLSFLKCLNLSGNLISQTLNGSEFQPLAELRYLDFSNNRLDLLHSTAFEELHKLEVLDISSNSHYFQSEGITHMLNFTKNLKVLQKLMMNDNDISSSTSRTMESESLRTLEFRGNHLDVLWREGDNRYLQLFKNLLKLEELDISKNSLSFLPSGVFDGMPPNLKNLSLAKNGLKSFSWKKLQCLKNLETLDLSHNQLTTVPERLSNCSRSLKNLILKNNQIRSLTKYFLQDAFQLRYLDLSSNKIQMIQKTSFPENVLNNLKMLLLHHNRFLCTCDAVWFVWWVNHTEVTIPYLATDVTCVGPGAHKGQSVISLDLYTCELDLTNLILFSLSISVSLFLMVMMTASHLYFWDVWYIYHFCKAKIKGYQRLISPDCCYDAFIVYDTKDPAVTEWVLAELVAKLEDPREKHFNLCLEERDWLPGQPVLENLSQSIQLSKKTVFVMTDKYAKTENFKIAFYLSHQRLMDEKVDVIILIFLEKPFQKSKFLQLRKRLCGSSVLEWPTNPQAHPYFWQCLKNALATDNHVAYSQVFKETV
Procedure: as §1, §2

[7] = system: murine monocyte derived APCs; assay: Cytokine secretion in murine monocyte derived APCs (GM-CSF-pretreated monocytes); type: cell-based; conditions: 18 hours
Procedure: Specifically, cytokine production is shown in FIG. 21 for GM-CSF-pretreated monocytes that were stimulated for 18 hours with the immunoconjugates or equivalent amounts of the unconjugated components.

T1 sequence (P12314 16-374): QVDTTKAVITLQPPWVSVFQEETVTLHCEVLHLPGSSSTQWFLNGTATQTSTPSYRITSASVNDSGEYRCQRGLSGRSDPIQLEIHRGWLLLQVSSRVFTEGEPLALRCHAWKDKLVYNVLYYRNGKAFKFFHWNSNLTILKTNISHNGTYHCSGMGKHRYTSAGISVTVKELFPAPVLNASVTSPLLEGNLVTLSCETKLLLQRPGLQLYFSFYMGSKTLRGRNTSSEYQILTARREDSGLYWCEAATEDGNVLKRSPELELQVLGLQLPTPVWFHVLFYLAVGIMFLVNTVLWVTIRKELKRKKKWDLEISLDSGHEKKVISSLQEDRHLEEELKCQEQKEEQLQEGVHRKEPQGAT

binding to CD64 [1]: impaired binding to CD64
Compound: deglycosylated Rituximab: Rituximab deglycosylated with PNGase F

binding to CD16a (fraction of maximal OD signal) [2]: diminished binding
Compound: aglycosyl Rituximab: aglycosyl Rituximab (Invivogen hcd20-mab12)

human TLR8 activation (OD 650 nm) [4]: activated both human TLR7 and TLR8
murine TLR7 activation (OD 650 nm) [5]: activated murine TLR7
human TLR7 activation (OD 650 nm) [6]: activated both human TLR7 and TLR8
Compound: CCCCc1nc2c(N)nc3ccccc3c2n1CCCCN [Compound 1]
myeloid cell activation (median fluorescence intensity of activation markers) [3]: performed similarly to R848
cytokine response (TNFα, IL-6, IL-12p70) [7]: failed to produce any cytokine response
